Reference: patent US10975101B2, “Ultra-potent vinca alkaloids: added molecular complexity further disrupts the tublin dimer-dimer interface” (priority 2016, dated 2021)
Where two headings read alike, the source gives them in different places.

How the values were obtained:
[1] = tested on: vinblastine sensitive tumor cell lines (L1210 and HCT116); assay: Cell growth inhibition, vinblastine-sensitive lines stated together; type: cell-based; settings: L1210 and HCT116, range over both lines; read-out: IC50's against vinblastine-sensitive tumor cell lines
Description: (§1) Compounds were tested for their cell growth inhibition of L1210 (ATCC no. CCL-219, mouse lymphocytic leukemia) cells, HCT116 (ATCC no. CCL-247, human colorectal carcinoma) cells, and HCT116/VM46 (a vinblastine-resistant strain of HCT116) cells in culture. A population of cells (>1×10^6 cells/mL as determined with a hemocytometer) was diluted with an appropriate amount of Dulbecco's Modified Eagle Medium (DMEM, Gibco) containing 10% fetal bovine serum (FBS, Gibco) to a final concentration of 30000 cells/mL.
(§2) To each well of a 96-well plate (Corning Costar), 100 μL of the cell media solution was added with a multichannel pipet. The cultures were incubated at 37° C. in an atmosphere of 5% CO2 and 95% humidified air for 24 hours. The test compounds were added to the plate as follows: test substances were diluted in DMSO to a concentration of 1 mM and 10-fold serial dilutions were performed on a separate 96-well plate. Fresh culture medium (100 μL) was added to each well of cells to constitute 200 μL of medium per well followed by 2 μL of each test agent. Compounds were tested in duplicate (n=2-18 times) at six concentrations between 0-1000 nM or 0-10000 nM. Following addition, cultures were incubated for an additional 72 hours.
(§3) A phosphatase assay was used to establish the IC50 values as follows: the media in each cell was removed and 100 μL of phosphatase solution (100 mg phosphatase substrate in 30 mL of 0.1 M NaOAc, pH 5.5, 0.1% Triton X-100 buffer) was added to each well. The plates were incubated at 37° C. for either 5 minutes (L1210) or 15 minutes (HCT116 and HCT116/VM46). After the given incubation time, 50 μL of 0.1 N NaOH was added to each well and the absorption at 405 nm was determined using a 96 well plate reader. As the absorption is directly proportional to the number of living cells, the IC50 values were calculated and the reported values represent of the average of 4-36 determinations (SD±10%).

[2] = tested on: HCT116 (human colorectal carcinoma) cells; assay: cells; type: cell-based; settings: 72 hours incubation, phosphatase assay; read-out: IC50, HCT116
Description: as §1, §2, §3

[3] = tested on: L1210 (mouse lymphocytic leukemia) cells; assay: Cell growth inhibition assay, L1210; type: cell-based; settings: 72 hours incubation, phosphatase assay
Description: as §1, §2, §3

[4] = tested on: HCT116/VM46 (a vinblastine-resistant strain of HCT116) cells; assay: Cell growth inhibition assay, HCT116/VM46; type: cell-based, human; settings: 72 hours incubation, phosphatase assay; Pgp-overexpressing resistant line
Description: as §1, §2, §3

[5] = tested on: HCT116/VM46 (a vinblastine-resistant strain of HCT116) cells; settings: previously reported (footnote a, Barker et al. 2013) or background art table; cited from earlier work
[6] = tested on: HCT116 (human colorectal carcinoma) cells; settings: cited from earlier work; for IC50: previously reported (footnote a, Barker et al. 2013) or background art table; for less potent than vinblastine: cell growth inhibition, background art (Leggans 2012; Barker 2012)

CC[C@]1(NC(=O)N2Cc3ccc(NC(C)=O)cc3C2)C[C@H]2CN(CCc3c([nH]c4ccccc34)[C@@](C(=O)OC)(c3cc4c(cc3OC)N(C)[C@H]3[C@@](O)(C(=O)OC)[C@H](OC(C)=O)[C@]5(CC)C=CCN6CC[C@]43[C@@H]65)C2)C1 [Compound 40]
IC50 [1]: 0.47 to 0.5 nM
IC50 [2]: 0.5 nM
IC50 [3]: 0.47 nM
IC50 [4]: 9.4 nM

CC[C@@H]1C[C@H]2CN(CCc3c([nH]c4ccccc34)[C@@](C(=O)OC)(c3cc4c(cc3OC)N(C)[C@H]3[C@@](O)(C(=O)OC)[C@H](OC(C)=O)[C@]5(CC)C=CCN6CC[C@]43[C@@H]65)C2)C1 [Compound 4, reference compound]
IC50 [5]: 600 nM
IC50 [6]: 60 nM

CC[C@]1(N=[N+]=[N-])C[C@H]2CN(CCc3c([nH]c4ccccc34)[C@@](C(=O)OC)(c3cc4c(cc3OC)N(C)[C@H]3[C@@](O)(C(=O)OC)[C@H](OC(C)=O)[C@]5(CC)C=CCN6CC[C@]43[C@@H]65)C2)C1 [Compound 5]
IC50 [5]: 5500 nM
less potent than vinblastine [6]: 100 fold
IC50 [6]: 690 nM

CC[C@]1(NC(=O)N2Cc3ccc(NC(=O)c4ccccc4)cc3C2)C[C@H]2CN(CCc3c([nH]c4ccccc34)[C@@](C(=O)OC)(c3cc4c(cc3OC)N(C)[C@H]3[C@@](O)(C(=O)OC)[C@H](OC(C)=O)[C@]5(CC)C=CCN6CC[C@]43[C@@H]65)C2)C1 [Compound 50]
IC50 [1]: 0.5 to 0.6 nM
IC50 [2]: 0.62 nM
IC50 [3]: 0.54 nM
IC50 [4]: 13 nM

CC[C@]1(NC(N)=O)C[C@H]2CN(CCc3c([nH]c4ccccc34)[C@@](C(=O)OC)(c3cc4c(cc3OC)N(C)[C@H]3[C@@](O)(C(=O)OC)[C@H](OC(C)=O)[C@]5(CC)C=CCN6CC[C@]43[C@@H]65)C2)C1 [Compound 7, reference compound]
IC50 [5]: 4400 nM
IC50 [6]: 7.5 nM

CC[C@]1(N)C[C@H]2CN(CCc3c([nH]c4ccccc34)[C@@](C(=O)OC)(c3cc4c(cc3OC)N(C)[C@H]3[C@@](O)(C(=O)OC)[C@H](OC(C)=O)[C@]5(CC)C=CCN6CC[C@]43[C@@H]65)C2)C1 [Compound 6, 20′-aminovinblastine]
IC50 [5]: > 10000 nM
less potent than vinblastine [6]: 100 fold
IC50 [6]: 600 nM

CCC1(NC(=O)N2CCC(OC)C2)CC2CN(CCc3c([nH]c4ccccc34)C(C(=O)OC)(c3cc4c(cc3OC)N(C)C3C(O)(C(=O)OC)C(OC(C)=O)C5(CC)C=CCN6CCC43C65)C2)C1 (mixture of isomers) [Compound 16]
IC50 [2]: 1 nM
IC50 [3]: 3.3 nM
IC50 [4]: 25 nM

CC[C@]1(NC(=O)N2CCC(F)C2)C[C@H]2CN(CCc3c([nH]c4ccccc34)[C@@](C(=O)OC)(c3cc4c(cc3OC)N(C)[C@H]3[C@@](O)(C(=O)OC)[C@H](OC(C)=O)[C@]5(CC)C=CCN6CC[C@]43[C@@H]65)C2)C1 (single isomer, unassigned) [Compound 18]
IC50 [2]: 0.61 nM
IC50 [3]: 0.6 nM
IC50 [4]: 20 nM

CC[C@]1(NC(=O)N2CC=CC2)C[C@H]2CN(CCc3c([nH]c4ccccc34)[C@@](C(=O)OC)(c3cc4c(cc3OC)N(C)[C@H]3[C@@](O)(C(=O)OC)[C@H](OC(C)=O)[C@]5(CC)C=CCN6CC[C@]43[C@@H]65)C2)C1 [Compound 22]
IC50 [2]: 0.5 nM
IC50 [3]: 0.53 nM
IC50 [4]: 5.7 nM

CC[C@]1(NC(=O)N2Cc3ccc(NC(=O)c4ccc(-c5ccccc5)cc4)cc3C2)C[C@H]2CN(CCc3c([nH]c4ccccc34)[C@@](C(=O)OC)(c3cc4c(cc3OC)N(C)[C@H]3[C@@](O)(C(=O)OC)[C@H](OC(C)=O)[C@]5(CC)C=CCN6CC[C@]43[C@@H]65)C2)C1 [Compound 51]
IC50 [2]: 6.3 nM
IC50 [3]: 5.9 nM
IC50 [4]: 75 nM

CC[C@]1(NC(=O)N2Cc3ccc(NC(=O)C=C(C)C)cc3C2)C[C@H]2CN(CCc3c([nH]c4ccccc34)[C@@](C(=O)OC)(c3cc4c(cc3OC)N(C)[C@H]3[C@@](O)(C(=O)OC)[C@H](OC(C)=O)[C@]5(CC)C=CCN6CC[C@]43[C@@H]65)C2)C1 [Compound 48]
IC50 [2]: 0.47 nM
IC50 [3]: 0.43 nM
IC50 [4]: 7.4 nM

CC[C@]1(NC(=O)N2CCCCCC2)C[C@H]2CN(CCc3c([nH]c4ccccc34)[C@@](C(=O)OC)(c3cc4c(cc3OC)N(C)[C@H]3[C@@](O)(C(=O)OC)[C@H](OC(C)=O)[C@]5(CC)C=CCN6CC[C@]43[C@@H]65)C2)C1 [Compound 24]
IC50 [2]: 3.1 nM
IC50 [3]: 4.3 nM
IC50 [4]: 35 nM

CC[C@]1(NC(=O)N2Cc3ccc(Br)cc3C2)C[C@H]2CN(CCc3c([nH]c4ccccc34)[C@@](C(=O)OC)(c3cc4c(cc3OC)N(C)[C@H]3[C@@](O)(C(=O)OC)[C@H](OC(C)=O)[C@]5(CC)C=CCN6CC[C@]43[C@@H]65)C2)C1 [Compound 33]
IC50 [2]: 0.56 nM
IC50 [3]: 0.62 nM
IC50 [4]: 6.4 nM

CC[C@]1(NC(=O)N2CCC(N(C)C)C2)C[C@H]2CN(CCc3c([nH]c4ccccc34)[C@@](C(=O)OC)(c3cc4c(cc3OC)N(C)[C@H]3[C@@](O)(C(=O)OC)[C@H](OC(C)=O)[C@]5(CC)C=CCN6CC[C@]43[C@@H]65)C2)C1 (single isomer, unassigned) [Compound 11]
IC50 [2]: 6.2 nM
IC50 [3]: 14 nM
IC50 [4]: 390 nM

CC[C@]1(NC(=O)N2CCC(C#N)C2)C[C@H]2CN(CCc3c([nH]c4ccccc34)[C@@](C(=O)OC)(c3cc4c(cc3OC)N(C)[C@H]3[C@@](O)(C(=O)OC)[C@H](OC(C)=O)[C@]5(CC)C=CCN6CC[C@]43[C@@H]65)C2)C1 (single isomer, unassigned) [Compound 21]
IC50 [2]: 1.8 nM
IC50 [3]: 5.1 nM
IC50 [4]: 60 nM

CC[C@]1(NC(=O)N2Cc3ccc(N)cc3C2)C[C@H]2CN(CCc3c([nH]c4ccccc34)[C@@](C(=O)OC)(c3cc4c(cc3OC)N(C)[C@H]3[C@@](O)(C(=O)OC)[C@H](OC(C)=O)[C@]5(CC)C=CCN6CC[C@]43[C@@H]65)C2)C1 [Compound 36]
IC50 [2]: 0.42 nM
IC50 [3]: 0.47 nM
IC50 [4]: 6.8 nM

CC[C@]1(NC(=O)N2Cc3ccc(NC(=O)C(C)C)cc3C2)C[C@H]2CN(CCc3c([nH]c4ccccc34)[C@@](C(=O)OC)(c3cc4c(cc3OC)N(C)[C@H]3[C@@](O)(C(=O)OC)[C@H](OC(C)=O)[C@]5(CC)C=CCN6CC[C@]43[C@@H]65)C2)C1 [Compound 43]
IC50 [2]: 0.49 nM
IC50 [3]: 0.39 nM
IC50 [4]: 6.4 nM

CC[C@]1(NC(=O)N2Cc3ccc(NC(=O)c4ccccn4)cc3C2)C[C@H]2CN(CCc3c([nH]c4ccccc34)[C@@](C(=O)OC)(c3cc4c(cc3OC)N(C)[C@H]3[C@@](O)(C(=O)OC)[C@H](OC(C)=O)[C@]5(CC)C=CCN6CC[C@]43[C@@H]65)C2)C1 [Compound 55]
IC50 [2]: 0.49 nM
IC50 [3]: 0.37 nM
IC50 [4]: 3.6 nM

CC[C@]1(NC(=O)N2CCC(F)C2)C[C@H]2CN(CCc3c([nH]c4ccccc34)[C@@](C(=O)OC)(c3cc4c(cc3OC)N(C)[C@H]3[C@@](O)(C(=O)OC)[C@H](OC(C)=O)[C@]5(CC)C=CCN6CC[C@]43[C@@H]65)C2)C1 (single isomer, unassigned) [Compound 17]
IC50 [2]: 0.64 nM
IC50 [3]: 0.62 nM
IC50 [4]: 7.2 nM

CC[C@]1(NC(=O)N2Cc3ccc(NC(=O)c4cccnc4)cc3C2)C[C@H]2CN(CCc3c([nH]c4ccccc34)[C@@](C(=O)OC)(c3cc4c(cc3OC)N(C)[C@H]3[C@@](O)(C(=O)OC)[C@H](OC(C)=O)[C@]5(CC)C=CCN6CC[C@]43[C@@H]65)C2)C1 [Compound 56]
IC50 [2]: 0.33 nM
IC50 [3]: 0.48 nM
IC50 [4]: 6.6 nM
